Measured values published in US6518302B1, “Remedies” (Takara Shuzo Co., Ltd., priority 1999, dated 2003).
Where two headings read alike, the source gives them in different places.

Experiments:
[1] = system: prostaglandin E2 production in RAW264.7 cells; experiment: Inhibition of prostaglandin E2 production induction by LPS (ELISA); assay type: cell-based; conditions: compound (7), (14) or (17) at final concentration of 50, 100 or 100 μM, respectively
Experimental: RAW264.7 cells were suspended in Dulbecco's modified Eagle's medium (Bio Whittaker, Code. 12-604F) containing 10% fetal calf serum at a concentration of 3×10^5 cells/ml. 500 μl of the suspension was added to each well of a 48-well microtiter plate and the plate was incubated at 37° C. for 6 hours in the presence of 5% CO2. The compound (7), (14) or (17) prepared in Example 1 was added to the well at a final concentration of 50, 100 or 100 μM, respectively. The plate was incubated for additional 5 hours. 10 μl of 50 μg/ml lipopolysaccharide (LPS, Sigma, Code. L-2012) aqueous solution was then added to the well. After the plate was incubated for additional 12 hours, the amount of prostaglandin E2 was measured. As control groups, a group to which LPS was not added and a group to which the compound (7), (14) or (17) was not added were provided.
After cultivation, the amount of prostaglandin E2 in the culture supernatant was measured using Prostaglandin E2 ELISA Kit (Neogen, Code. 404110). All of the measurements were carried out in triplicate.
FIG. 21 illustrates the prostaglandin E2 concentration in the medium obtained by incubating under various culture conditions. In FIG. 21, the horizontal axis represents the culture conditions and the vertical axis represents the prostaglandin E2 concentration (ng/ml).

[2] = system: IL-10 production in RAW264.7 cells; experiment: Inhibition of LPS-induced IL-10 production (ELISA); assay type: cell-based, Mouse; conditions: 0.5 ml, 5 μl of 10 mM compound (14), 1 μl of 25 mM compound (7) or 1 μl of 50 mM compound (17), 18 hours after LPS
Experimental: RAW264.7 cells (ATCC TIB 71) were suspended in Dulbecco's modified Eagle's medium (Bio Whittaker, 12-604F) containing 10% fetal calf serum (Gibco) at a concentration of 3×10^5 cells/ml. 0.5 ml of the suspension was added to each well of a 48-well microtiter plate and the plate was incubated at 37° C. overnight in the presence of 5% CO2. 5 μl of a solution containing the compound (14) at a concentration of 10 mM in water, 1 μl of a solution of the compound (7) at a concentration of 25 mM in dimethyl sulfoxide, or 1 μl of a solution of the compound (17) at a concentration of 50 mM in dimethyl sulfoxide was added to the well. After incubation for additional 5 hours, 5 μl of a solution of lipopolysaccharide (LPS, Sigma, L-2012) at a concentration of 100 μg/ml in water was added thereto. After incubation for 18 hours, a culture supernatant was collected. The content of interleukin 10 (IL-10) in the culture supernatant was measured using enzyme immuno sandwich assay (ELISA; Mouse IL-10 ELISA Kit, Endogen). As a control, a group to which the sample or the LPS aqueous solution was not added was provided. All of the measurements were carried out in duplicate.
FIG. 27 illustrates the IL-10 concentrations in culture supernatants obtained by culturing under various culture conditions. The horizontal axis represents the culture conditions and the vertical axis represents the IL-10 concentration (pg/ml).

[3] = system: HL-60 (ATCC CCL-240) cells; experiment: Viability of HL-60 cells by Trypan Blue staining; assay type: cell-based; conditions: Homo sapiens, read-out: Viability50, concentration that results in a viability of 50%
Experimental: HL-60 (ATCC CCL-240) cells were cultured at 37° C. in RPMI 1640 medium (Bio Whittaker) containing 10% fetal calf serum (JRH) which had been treated at 56° C. for 30 minutes and suspended in RPMI 1640 medium at a concentration of 2.5×10^5 cells/4.5 ml.
[…] each of aqueous solutions of the compound (2) at a concentration of 10, 50 or 100 mM, the compound (7) at a concentration of 500, 1000 or 1500 μM, the compound (9) at a concentration of 750, 1500 or 3000 μM, the compound (11) at a concentration of 750, 1500 or 3000 μM, or the compound (14) at a concentration of 750, 1500 or 3000 μM was added to 4.5 ml of the suspension. The mixtures were incubated at 37° C. for 24 hours in the presence of 5% CO2.
A portion of the cells cultured for 24 or 48 hours as described in Example 4 was stained with 0.4% Trypan Blue and examined under an optical microscope. The number of viable cells which were not stained and the number of dead cells which were stained blue were counted. The concentration of each of the compounds (2), (7), (9), (11) and (14) that results in a viability of 50% (Viability50 mM) was determined.

IC50 ([3]; 24 hours) [µM]	IC50 ([3]; 48 hours) [µM]	Structure (SMILES)	inhibition of prostaglandin E2 production induction by LPS [1]	inhibition of LPS-induced IL-10 production [2]
123	101	O=C[C@H](O)[C@H]1OC[C@@H](O)[C@@H]1OC(=O)c1ccccc1 [Compound (7), 4-O-benzoyl-3,6-anhydro-D-galactose]	inhibited the prostaglandin E2 production induction by LPS	inhibition of LPS-induced IL-10 production was observed
551	150	OCC1OC(OC2C(CO)OC(OC3C(CO)OC(OC4C(O)COC4C(O)C(O)O)C(O)C3O)C(O)C2O)C(O)C(O)C1O [Compound (14), 4-O-β-maltotoriosyl-3,6-anhydro-D-galactose]	inhibited the prostaglandin E2 production induction by LPS	inhibition of LPS-induced IL-10 production was observed
–	–	O=C[C@H](O)[C@H]1OC[C@@H](O)[C@@H]1OCc1ccccc1 [Compound (17), 4-O-benzyl-3,6-anhydro-D-galactose]	inhibited the prostaglandin E2 production induction by LPS	inhibition of LPS-induced IL-10 production was observed
